Converted amounts (≈) assume the structure as drawn. Like-named read-outs stand apart in the source and are kept apart here. Marks after values point to notes of the source that are not given here. One block for each molecule: values may come before it.
Assays:
HaCaT cells [1] = assay: Cytotoxic and photocytotoxic activities before and after UVA irradiation; type: cell-based, human; details: for IC50: Homo sapiens, light or radiation study; for Photo-Irritancy Factor (PIF), formal PIF: formal PIF = *1.0 = Cmax(−UV)/Cmax(+UV)
Procedure: Briefly, 100 µL per well of a cell suspension of HaCaT cells (ATCC) at 120,000 cells/mL were maintained in a RPMI culture medium with 5% of calf serum at 37 °C under 5% CO2 for 24 h for formation of monolayers. At t = 24 h, two 96-well plates per test chemical were preincubated for 1 h with seven different concentrations of the tested compounds and extract (ranging from 1 µg/mL to 200 µg/mL). Chlorpromazine was used as the positive control. To allow results comparison and due to the presence of extract, concentrations are expressed in µg/mL.
For both assays, each concentration and all tests were done in triplicate and the results averaged. The percentage inhibition at steady state for each dilution was used to calculate the IC50 values.

[2] = In vitro screening method for sun protection indexes (SPF, PF-UVA, λc, ISP, SUI) from UV absorbance 290–400 nm; type: physicochemical
Procedure: Photoprotective effectiveness is evaluated through photoprotective indexes such as SPF, PF-UVA, and critical wavelength (λc) (an indicator of the filter capacity to protect in the UVA range), as well as Spectral Uniformity Index (SUI) and Ideal Spectral Profile (ISP), two indexes recently defined by Diffey to focus on protection across the entire ultraviolet spectrum. They calculate the goodness of fit of the spectral profile to the ideal flat profile. SPF and PF-UVA measure the filter efficacy against UVB or UVA. SPF measurement is currently determined in vivo through determination of the erythemal reaction on human volunteers. For economical and ethical reasons, many alternative in vitro methods have been developed to measure SPF and also PF-UVA, λc or SUI and ISP. Unfortunately, despite concerted efforts around the globe between different commissions, none of them guarantees a good correlation with in vivo measurements. Moreover, all these in vitro methods require an amount of active raw material generally ≥100 mg and prevent the evaluation of compounds in minute amounts. The photoprotective indexes have been then determined thanks to a new method (see SM) especially developed to cope with the low availability of the compounds. Twelve commercial organic UV-filters, the photoprotective indexes of which were published (Table S3 in SM), encompassing a 1–24 SPF range were used for the development. It can be noted that the SPF values of benzophenone-3 (oxybenzone), PEG-25 PABA, homosalate, polysilicone 15 and 4-Methylbenzylidene Camphor are under 6, the value commonly accepted as the lower limit for commercial sunscreen. However, the efficient value of commercialized emulsion can be explained by the formulation of several organic and mineral filters. The similarity of the results (r^2 = 0.98 for published SPF vs. herein SPF, see Figure S1 in SM) supported the new method validity. Routinely, ethylhexyl methoxycinnamate (OMC) was used as positive control. Based on the SPF, λc, PF-UVA, SUI and ISP values obtained with marketed organic filters and on their UV range protection (Table S3 in SM), a decision tree was built to categorize the filters (Figure 3). Considering the herein SPF values of the filters cited above (around 2), the first condition to select a candidate is SPF > 2. Restricted UVA or UVB filters can be discriminated through the λc value (>370 nm) and PF-UVA (>2) for UVA and SUI (>1.2) and ISP (<90) for UVB. A large spectral protection (UVA + UVB) could be evaluated by combining the four criteria.
A new in vitro screening method based on spectrophotometric data was used to evaluate sun protection indexes such as SPF, PF-UVA, the critical wavelength λc, ISP and SUI. Its development was first conducted in a cuvette using twelve commercial organic filters encompassing a large range of SPF values (1 < SPF < 25) and then transposed in a 96-wells plate. Following the International recommendations, maximal concentrations never overtook 10% whatever the commercial filters or the lichens extracts or compounds considered. This new method faces some product availability limitation, which is a common shortcoming for natural products or metabolites (see all development in SM).
The scheme of solution preparation to record the experimental values is depicted in Figure 9. The sample (S4) was prepared at 0.02 mg/mL from stock solutions of filter candidate (S2) and of emulsion (S1) (See emulsion preparation in SM) taking into account the maximal concentration. The experimental absorbances Aλ were recorded in the 290–400 nm range versus a blank solution (S3) in a cuvette with a double beam spectrophotometer or in a 96-wells plate filled with 180 µL of solution by well. […] The diagram is described for final volumes of 50 mL, 100 µL, 25 mL and 25 mL for S1, S2, S3 and S4 solutions, respectively. Smaller volumes can easily be prepared. Solutions S2 and S4 were prepared in duplicate. […]

[3] = Stability of photoprotection indexes after UVA or UVB irradiation; type: physicochemical; details: for photostability: UVA and UVB
Procedure: One hundred eighty microliters of solution in 96-well plates were irradiated by UVA (2 J/cm^2) or UVB ([…]). The absorbances were then recorded and photoprotective indexes were calculated as described above. The stability was evaluated by comparison between indexes described previously (Section 3.5.1) and obtained before and after irradiation. Two independently prepared solutions were studied and OMC was used as a positive control.

[4] = NBT assay (superoxide anion scavenging, non-enzymatic NADH/PMS); type: biochemical
Procedure: Measurements of superoxide anion scavenging activity in 96-well microplates was based on the non-enzymatic method previously described with some modifications. The reaction mixture in the sample wells consisted of NADH (78 µM), nitro-blue tetrazolium (NBT) (50 µM), phenazine methosulfate (PMS) (10 µM), and lichen compounds (10, 20, 40, 80 µg/mL). The reagents were dissolved in 16 mM tris-hydrochloride buffer, at pH = 8 except for all the lichen compounds/extract which were dissolved in DMSO. After 5 min of incubation at room temperature, the spectrophotometric measurement was performed at 560 nm against blanks (without PMS nor sample).
(§1) For both assays, each concentration and all tests were done in triplicate and the results averaged. Ascorbic acid was used as a positive control. The percentage inhibition at steady state for each dilution was used to calculate the IC50 values. This gave the amount of antioxidant required (measured as the concentration of the stock solution added to the reaction mixture) to either scavenge 50% of O2^− or 50% of DPPH radicals: the lower the values, the higher the scavenging activity towards O2^−.

[5] = DPPH assay (reducing activity); type: biochemical
Procedure: Reducing activity of compounds 1–3 and crude extract on the 1,1′-diphenyl-2-picrylhydrazyl free radical (DPPH) and scavenging activity on superoxide anion were measured as previously described. Briefly, the scavenging activity of the lichen compounds on DPPH was measured using the Matsukawa method with some modifications. A reaction mixture containing 100 µL of DPPH (0.5 mM) in methanol and 10 µL of the lichen compound solutions in DMSO to give final concentrations of 19, 56, 167 and 500 µg/mL per well, was distributed in each microplate well. To allow results comparison and due to the presence of extract, concentrations are expressed in µg/mL. The absorbances were recorded at 540 nm after 30 min.
as §1

HaCaT cells [6] = details: human
Procedure: For each drug ratio (Tables S7 and S8 in SM), the cytotoxicity was evaluated as previously described (2.7.1).
For both assays, each concentration was done in triplicate and the results averaged.

[7] = NBT antioxidant assay of compounds in combination (isobologram, combination index); type: biochemical
Procedure: For each drug ratio (Tables S5 and S6 in SM), the antioxidant inhibition was evaluated as previously described (2.6.1).
The antagonistic, synergistic or additive effect of the combination depends on the combination index value (CI) (Equation (1)). […] (IC50)X is the value of the IC50 of compound X alone.
For both assays, each concentration and all tests were done in triplicate and the results averaged.

[8] = design: method as in earlier work; details: ref 37 (Rancan); cited from earlier work
[9] = cited from earlier work; for SPF: commercial organic UV-filters, lower limit for commercial sunscreen 6
[10] = HaCaT cells, with UVA irradiation, read-out: IC50 ± SD With Irradiation
[11] = HaCaT cells, without irradiation, read-out: IC50 ± SD Without Irradiation
[12] = before irradiation, new in vitro method

Molecule: CN(C)CCCN1c2ccccc2Sc2ccc(Cl)cc21 [Chlorpromazine, reference compound]
IC50 (HaCaT cells [1]; [10]): 2.4 ± 0.3 µg/mL (≈ 7.53 µM)
IC50 (HaCaT cells [1]; [11]): 13.2 ± 1.7 µg/mL (≈ 41.4 µM)
Photo-Irritancy Factor (PIF) (HaCaT cells [1]; PIF = IC50(−UV)/IC50(+UV), PIF < 5 no phototoxic potential): 5.5 ^d

ISP (Ideal Spectral Profile) ([2]; before irradiation): 105%
PF-UVA ([2]; before irradiation): 1.6
SUI (Spectral Uniformity Index) ([2]; before irradiation): 1.1
critical wavelength (λc) ([2]; before irradiation): 330 nm
SPF [2, 12]: 10.4
SPF ([2]; cuvette, dissolved in DMSO): 10.1
SPF ([2]; cuvette, dissolved in THF): 9.6
decrease in indexes after irradiation ([3]; UVA or UVB irradiation): 25%
Molecule: CCCCC(CC)COC(=O)C=Cc1ccc(OC)cc1 (stereo not drawn) [OMC, ethylhexyl methoxycinnamate, reference compound]

NBT Assay IC50 ± SD [4]: 3.0 ± 0.4 µg/mL
DPPH Assay IC50 ± SD [5]: 12.5 ± 0.5 µg/mL
Molecule: O=C1O[C@H]([C@@H](O)CO)C(O)=C1O [Ascorbic acid, reference compound]

ISP (Ideal Spectral Profile) ([2]; before irradiation): 19%
PF-UVA ([2]; before irradiation): 3.9
SUI (Spectral Uniformity Index) ([2]; before irradiation): 7.6
photostability [3]: photostable in the UVA and UVB ranges
NBT Assay IC50 ± SD [4]: 30.0 ± 3.0 µg/mL
DPPH Assay IC50 ± SD [5]: 55.0 ± 8.0 µg/mL
Molecule: COC(=O)/C(=C1/OC(=O)C(c2ccccc2)=C1O)c1ccccc1 [Vulpinic acid, vulpinic acid]
Percentage of cytotoxicity (HaCaT cells [6]; 5 µg/mL): 0.0%
Percentage of cytotoxicity (HaCaT cells [6]; 20 µg/mL): 0.0%
Superoxide anion scavenging activity (% inhibition) ([7]; Table S6, vulpinic acid alone 7.5 µg/mL): 22.0%
Superoxide anion scavenging activity (% inhibition) ([7]; Table S6, vulpinic acid alone 15.0 µg/mL): 30.0%
Superoxide anion scavenging activity (% inhibition) ([7]; Table S6, vulpinic acid alone 22.5 µg/mL): 42.0%
Superoxide anion scavenging activity (% inhibition) ([7]; Table S6, vulpinic acid alone 30.0 µg/mL): 50.0%
IC50 (HaCaT cells [1]; [10]): > 200 µg/mL
IC50 (HaCaT cells [1]; [11]): > 200 µg/mL
Photo-Irritancy Factor (PIF), formal PIF (HaCaT cells [1]): *1.0 ^c

Molecule: usnic acid
ISP (Ideal Spectral Profile) ([2]; before irradiation): 53%
PF-UVA ([2]; before irradiation): 1.8
critical wavelength (λc) ([2]; before irradiation): 364 nm
SPF [2, 12]: 3.9
in vivo SPF [8]: 4.1
variation in the SPF values after UVA irradiation ([3]; UVA 2 J/cm^2): +17%
photostability [3]: photostable in the UVA and UVB ranges
NBT Assay IC50 ± SD [4]: 24.0 ± 9 µg/mL
DPPH Assay IC50 ± SD [5]: >500.0 µg/mL
Superoxide anion scavenging activity (% inhibition) ([7]; Table S6, usnic acid alone 6.0 µg/mL): 32.0%
Superoxide anion scavenging activity (% inhibition) ([7]; Table S6, usnic acid alone 12.0 µg/mL): 40.0%
Superoxide anion scavenging activity (% inhibition) ([7]; Table S6, usnic acid alone 18.0 µg/mL): 46.0%
Superoxide anion scavenging activity (% inhibition) ([7]; Table S6, usnic acid alone 24.0 µg/mL): 50.0%
Superoxide anion scavenging activity (% inhibition) ([7]; Table S7, usnic acid alone 6.0 µg/mL): 32.0%
Superoxide anion scavenging activity (% inhibition) ([7]; Table S7, usnic acid alone 12.0 µg/mL): 40.0%
Superoxide anion scavenging activity (% inhibition) ([7]; Table S7, usnic acid alone 18.0 µg/mL): 46.0%
Superoxide anion scavenging activity (% inhibition) ([7]; Table S7, usnic acid alone 24.0 µg/mL): 50.0%
IC50 ± SD With Irradiation (HaCaT cells [1]; HaCaT cells, with UVA irradiation): 47.0 ± 10.0 µg/mL
IC50 ± SD Without Irradiation (HaCaT cells [1]; HaCaT cells, without irradiation): 33.0 ± 2.0 µg/mL
phototoxic potential (HaCaT cells [1]; from PIF, human keratinocyte cell line, UVA): no phototoxic potential

SPF ([2]; cuvette, dissolved in DMSO): 1.8
Molecule: CCCCC(CC)COc1ccc(-c2nc(-c3ccc(OC)cc3)nc(-c3ccc(OCC(CC)CCCC)cc3O)n2)c(O)c1 (stereo not drawn) [anisotriazine, Bis-Ethylhexyloxyphenol Methoxytphenyl Triazine, reference compound]
published SPF ([9]; reference value, ref 6–8 of supplement): 23.9

Molecule: Cc1ccc(/C=C2/C(=O)C3(C)CCC2C3(C)C)cc1 (stereo not drawn) [4-Methylbenzylidene Camphor]
SPF [9]: under 6

Molecule: COc1ccc(C(=O)c2ccccc2)c(O)c1 [benzophenone-3 (oxybenzone), benzophenone-3]
SPF [9]: under 6

ISP (Ideal Spectral Profile) ([2]; before irradiation): 61%
PF-UVA ([2]; before irradiation): 1.8
SUI (Spectral Uniformity Index) ([2]; before irradiation): 1.9
critical wavelength (λc) ([2]; before irradiation): 386 nm
SPF [2, 12]: 4.1
photostability [3]: photostable in the UVA and UVB ranges
NBT Assay IC50 ± SD [4]: 70.0 ± 23.0 µg/mL
DPPH Assay IC50 ± SD [5]: 80.0 ± 8.0 µg/mL
Molecule: COC(=O)/C(=C1/OC(=O)C(c2ccc(OC)cc2)=C1O)c1ccccc1 [Pinastric acid, pinastric acid]
Superoxide anion scavenging activity (% inhibition) ([7]; Table S7, pinastric acid alone 17.5 µg/mL): 25.0%
Superoxide anion scavenging activity (% inhibition) ([7]; Table S7, pinastric acid alone 35.0 µg/mL): 37.0%
Superoxide anion scavenging activity (% inhibition) ([7]; Table S7, pinastric acid alone 52.5 µg/mL): 44.0%
Superoxide anion scavenging activity (% inhibition) ([7]; Table S7, pinastric acid alone 70.0 µg/mL): 50.0%
IC50 (HaCaT cells [1]; [10]): > 200 µg/mL
IC50 (HaCaT cells [1]; [11]): > 200 µg/mL
Photo-Irritancy Factor (PIF), formal PIF (HaCaT cells [1]): *1.0 ^c

Molecule: PEG-25 PABA
SPF [9]: under 6

Molecule: CC1CC(OC(=O)c2ccccc2O)CC(C)(C)C1 (stereo not drawn) [homosalate]
SPF [9]: under 6
